# Measured values from US7157017B2, “Fungicidal compositions and methods using cyanodithiocarbimates” (Buckman Laboratories International, Inc., priority 2003, dated 2007).
# System: Aspergillus niger
# Assay: Inhibition of growth of Aspergillus niger in liquid MSY medium (96-well microplate, OD 686 nm)
# Assay type: cell-based
# Conditions: MSY broth, four days at 28° C. in the dark, complete inhibition = OD≦0.05, test levels given as ppm
# Description: The antifungal activities of compounds of formula (I) were measured by determining the inhibition of growth of Aspergillus niger in a standard liquid medium. The liquid growth medium is described as a solution of mineral salts+yeast extract (MSY). The MSY broth was prepared as described in ASTM G 21–70^1, and amended with glucose (10 g liter^−1) and yeast extract (1 g liter^−1). An aliquot (250 μL) of sterile medium was dispensed into each test well of a standard 96-well microplate (Corning No. 430247). Stock solutions of test compounds were prepared by dissolving the materials in 9:1 (v/v) solution of acetone:methanol. Appropriate volumes of stock solutions were added to the test wells in order to achieve the desired ppm levels. Each test well (plus controls) was then inoculated with 5 μL of a standardized suspension of Aspergillus niger. The cell suspension was prepared by suspending viable cells from a slant of potato dextrose agar into sterile, deionized water. The suspension was then adjusted to provide OD686=0.28. This density contains approximately 2.5×10^7 CFU mL^−1 (CFU=Colony Forming Units). The microplates were incubated in the dark for four days at 28° C. The optical density for each well at 686 nm was then recorded automatically using a SpectraMax 340 microplate reader (Molecular Devices Corp., Sunnyvale, Calif.). All wells were visually inspected in order to corroborate data from the instrument. […] The results are shown in Table 2. ^1“Standard Practice for Determining Resistance of Synthetic Polymeric Materials to Fungi”,ASTM Standards on Materials and Environmental Microbiology, 1st. Ed., 1987.
row,SMILES,Antifungal MIC
1,"CCCCCCSC(=NC#N)SCCl [Cl, —(CH2)5CH3, hexyl chloromethyl cyanodithiocarbimate]",0.2
2,"N#CN=C(SCCl)SCc1ccccc1 [Cl, —CH2C6H5, benzyl chloromethyl cyanodithiocarbimate]",1.0

# The next lines start with the values.
row,Antifungal MIC,SMILES
1,0.5,"CCCSC(=NC#N)SCCl [Cl, —(CH2)2CH3, propyl chloromethyl cyanodithioicarbimate]"
2,0.5,"CC(C)SC(=NC#N)SCCl [Cl, —CH2(CH3)2, isopropyl chloromethyl cyanodithiocarbimate]"
3,1.0,"C=CCSC(=NC#N)SCCl [Cl, —CH2CHC═CH2, allyl chloromethyl cyanodithiocarbimate]"

# System: fungal growth (mold) on wet blue hide
# Assay: Performance testing in a tannery: wet blue test pieces in mold-infested tropical chamber
# Conditions: methyl carbitol-based formulation containing 30% w/w, 0.1% by weight in float (300 ppm active ingredient), chrome tanning of cowhides; 47 wet blue pieces, four weeks in tropical chamber
# Description: A methyl carbitol-based formulation containing 30% w/w of hexyl chloromethyl cyanodithiocarbimate was tested in a commercial tannery. Eighty-two cowhides were subjected to a standard production run using chrome tanning. The test formulation was added to the float (tanning liquid) at a concentration of 0.1% by weight providing a concentration of 300 ppm of active ingredient hexyl chloromethyl cyanodithiocarbimate. At the completion of the tanning process, five tanned hides (“wet blues”) were chosen randomly. Numerous test pieces (12×14 cm) were cut from the butt, belly, and neck regions of each of the five hides. A total of 47 test pieces of wet blue obtained were coded relative to hide source and position, and each piece was suspended in a tropical chamber. The tropical chamber was a mold-infested humidity chamber designed to severely challenge the test fungicide applied during the tanning process. Each test piece was visually examined on a weekly basis for four weeks for the presence or absence and extent of possible mold growth. […] This is the type of performance desired of a fungicide by the hide tanning industry.
row,SMILES,presence or absence and extent of mold growth on test pieces
1,"CCCCCCSC(=NC#N)SCCl [Cl, —(CH2)5CH3, hexyl chloromethyl cyanodithiocarbimate]",free of fungal growth
